Results from article PMC8064090 (Biomolecules, 2021).
Read-outs that look alike come from different tables or passages of the source.

How the values were obtained:
[1] = molecular target: T1, wild type (WT) South African HIV-1 subtype C protease (HIV-1 PR) (Human immunodeficiency virus type 1 group M subtype C, UniProt O12158); test: Enzyme inhibition assay with chromogenic substrate (Dixon method), wild type PR; type: biochemical; details: for Relative Resistance: WT, Ki of mutant/Ki of WT
Description: (§1) HIV-1 PR activity was measured by adding a purified enzyme (100–300 nM) to 300 µM of the chromogenic substrate Lys-Ala-Arg-Val-Nle-p-nitro-Phe-Glu-Ala-Nle amide (Sigma-Aldrich, St. Louis, MO, USA) dissolved in buffer D (50 mM sodium acetate buffer containing 100 mM NaCl (pH 5.0)) at 37 °C. The change in absorbance upon hydrolysis of the substrate by HIV-1 PR was monitored, and an extinction coefficient of 1800 M-1 cm-1 at a wavelength of 300 nm was used to convert the absorbance change to reaction rates. […] The data obtained were analyzed by plotting the reciprocal of substrate hydrolysis against substrate concentration (Lineweaver–Burk method to determine the Km and Kcat) and inhibitor concentration (Dixon method to determine the Ki) respectively.

[2] = molecular target: T2, HIV-1 PR MUT-1 (M46I, I54V, V82A, L10F) (Human immunodeficiency virus type 1 group M subtype C, UniProt O12158, I538V/L494F/M530I/V566A); test: biochemical
Description: as §1

[3] = molecular target: HIV-1 PR MUT-2 (M46I, I54V, L76V, V82A, L33F, L10F) (Human immunodeficiency virus type 1 group M subtype C, UniProt O12158, I538V/L494F/L517F/L560V/M530I/V566A); test: biochemical
Description: as §1

[4] = molecular target: T3, HIV-1 PR MUT-3 (M46I, I54V, L76V, V82A, L90M, F53L) (Human immunodeficiency virus type 1 group M subtype C, UniProt O12158, F537L/I538V/L560V/L574M/M530I/V566A); test: biochemical
Description: as §1

[5] = molecular target: T1, wild type (WT) South African HIV-1 subtype C protease (HIV-1 PR); test: Intrinsic tryptophan fluorescence quenching assay, wild type PR; type: binding
Description: (§2) Fluorescent spectra were recorded as described previously using a PerkinElmer LS 55 spectrometer with a 1.0 cm quartz cell (PerkinElmer, Waltham, MA, USA) and connected to a thermostat-controlled bath. This assay utilized the intrinsic tryptophan (Trp) fluorescence by causing the excitation of the π–π* transition in the tryptophan residues. Two Trp residues are found at positions 6 and 42 in each monomer of HIV-1 PR. Trp 6 is located close to the active site, and Trp 42 is found close to the flap of the HIV-1 PR. The position of the Trp residues on the enzyme surface makes them good probes in monitoring changes in the HIV-1 PR tertiary structure. The protein was excited at 295 nm, and fluorescence measurements were recorded from 300 to 420 nm at room temperature (25 °C). The excitation and emission slit widths were set at 5 nm, and the fluorescence spectra were acquired at 500 nm/min. The obtained fluorescence data was corrected and smoothened by running control samples of the buffer. For the fluorescence quenching study, […] of HIV-1 PR and varying inhibitor concentration from 10 to 500 nM were used. For every reaction, a new enzyme solution was used. The decrease in intrinsic Trp fluorescence (F0–F) at each concentration of inhibitor was fitted to the equation (F0–F) = ΔFmax/(1 + (Ki/[I]) to determine Ki and ΔFmax values using the Origin(Pro), 2019 (OriginLab Corporation, Northampton, MA, USA). The Stern–Volmer quenching constants (Ksv) were also calculated by fitting the data into the equation F0/F = 1 + Ksv (Q). The Stern–Volmer constant reports the accessibility of fluorophores to a quencher and the solvent accessibility of the fluorophore. Thus, it is an essential tool that can be used to probe the conformational changes around a fluorophore in proteins. […] The inner filter effect was corrected by using the formula Fc = Fantilog[(Aex + Aem)/2], where Fc is the corrected measurement and F is the measured fluorescence intensities, respectively, Aex is solution absorbance at the excitation, and Aem emission wavelengths.

[6] = molecular target: T4, HIV-1 PR MUT-2 (M46I, I54V, L76V, V82A, L10F, L33F) (Human immunodeficiency virus type 1 group M subtype C, UniProt O12158, I538V/L494F/L517F/L560V/M530I/V566A); test: Intrinsic tryptophan fluorescence quenching assay, MUT-2 PR; type: binding, HIV-1 subtype C; details: MUT-2 HIV-1 PR; for Ki: tryptophan fluorescence, 25 °C
T4 construct: The HIV-1 PR is a 99 amino acid homodimer; made in house; host or cells: Escherichia coli (NEBExpress)
Description: as §2, with “used.” for “used. The decrease in intrinsic Trp fluorescence (F0–F) at each concentration of inhibitor was fitted to the equation (F0–F) = ΔFmax/(1 + (Ki/[I]) to determine Ki and ΔFmax values using the Origin(Pro), 2019 (OriginLab Corporation, Northampton, MA, USA). The Stern–Volmer quenching constants (Ksv) were also calculated by fitting the data into the equation F0/F = 1 + Ksv (Q). The Stern–Volmer constant reports the accessibility of fluorophores to a quencher and the solvent accessibility of the fluorophore. Thus, it is an essential tool that can be used to probe the conformational changes around a fluorophore in proteins.”

[7] = molecular target: wild type South African HIV-1 subtype C PR; details: previous study ref 71; cited from earlier work
[8] = molecular target: wild-type subtype B HIV-1 PR; details: cited from earlier work
[9] = molecular target: T2, HIV-1 PR MUT-1 (M46I, I54V, V82A, L10F); test: biochemical; type: binding, HIV-1 subtype C; design: The HIV-1 PR is a 99 amino acid homodimer; made in house; host or cells: Escherichia coli (NEBExpress); details: for Stern–Volmer quenching constant (Ksv): MUT-1 HIV-1 PR
Description: as §2, with “used.” for “used. The decrease in intrinsic Trp fluorescence (F0–F) at each concentration of inhibitor was fitted to the equation (F0–F) = ΔFmax/(1 + (Ki/[I]) to determine Ki and ΔFmax values using the Origin(Pro), 2019 (OriginLab Corporation, Northampton, MA, USA). The Stern–Volmer quenching constants (Ksv) were also calculated by fitting the data into the equation F0/F = 1 + Ksv (Q). The Stern–Volmer constant reports the accessibility of fluorophores to a quencher and the solvent accessibility of the fluorophore. Thus, it is an essential tool that can be used to probe the conformational changes around a fluorophore in proteins.”

[10] = molecular target: T3, HIV-1 PR MUT-3 (M46I, I54V, L76V, V82A, L90M, F53L); test: biochemical; type: binding, HIV-1 subtype C; design: The HIV-1 PR is a 99 amino acid homodimer; made in house; host or cells: Escherichia coli (NEBExpress); details: for Stern–Volmer quenching constant (Ksv): MUT-3 HIV-1 PR
Description: as §2, with “used.” for “used. The decrease in intrinsic Trp fluorescence (F0–F) at each concentration of inhibitor was fitted to the equation (F0–F) = ΔFmax/(1 + (Ki/[I]) to determine Ki and ΔFmax values using the Origin(Pro), 2019 (OriginLab Corporation, Northampton, MA, USA). The Stern–Volmer quenching constants (Ksv) were also calculated by fitting the data into the equation F0/F = 1 + Ksv (Q). The Stern–Volmer constant reports the accessibility of fluorophores to a quencher and the solvent accessibility of the fluorophore. Thus, it is an essential tool that can be used to probe the conformational changes around a fluorophore in proteins.”

[11] = test system: HIV-1 PR MUT-1 (M46I, I54V, V82A, L10F); test: biochemical; details: MUT-1; Ki of mutant/Ki of WT
Description: as §1

[12] = test system: HIV-1 PR MUT-2 (M46I, I54V, L76V, V82A, L33F, L10F); test: biochemical; details: MUT-2; Ki of mutant/Ki of WT
Description: as §1

[13] = test system: HIV-1 PR MUT-3 (M46I, I54V, L76V, V82A, L90M, F53L); test: biochemical; details: MUT-3; Ki of mutant/Ki of WT
Description: as §1

[14] = molecular target: multidrug-resistant forms of HIV-1 subtype B PR harboring numerous major and minor mutations; details: cited from earlier work

T2 sequence (O12158 485-583 L494F/M530I/I538V/V566A): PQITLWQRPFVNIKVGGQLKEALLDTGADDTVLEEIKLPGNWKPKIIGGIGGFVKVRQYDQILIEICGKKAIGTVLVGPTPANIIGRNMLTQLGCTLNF
T4 sequence (O12158 485-583 L494F/L517F/M530I/I538V/L560V/V566A): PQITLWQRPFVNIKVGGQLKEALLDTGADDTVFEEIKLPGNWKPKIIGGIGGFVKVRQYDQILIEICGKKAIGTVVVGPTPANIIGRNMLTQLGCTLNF
T1 sequence (O12158 485-583): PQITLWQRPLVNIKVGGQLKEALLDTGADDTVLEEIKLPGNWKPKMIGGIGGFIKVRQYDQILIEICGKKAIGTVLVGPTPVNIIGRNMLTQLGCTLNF
T3 sequence (O12158 485-583 M530I/F537L/I538V/L560V/V566A/L574M): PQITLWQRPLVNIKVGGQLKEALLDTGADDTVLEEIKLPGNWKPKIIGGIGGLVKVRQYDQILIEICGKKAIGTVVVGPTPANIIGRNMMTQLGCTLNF
HIV-1 PR MUT-2 (M46I, I54V, L76V, V82A, L33F, L10F) (Human immunodeficiency virus type 1 group M subtype C, UniProt O12158, I538V/L494F/L517F/L560V/M530I/V566A), sequence (O12158 485-583 L494F/L517F/M530I/I538V/L560V/V566A): as the sequence (O12158 485-583 L494F/L517F/M530I/I538V/L560V/V566A) above

Row | Structure (SMILES) | Ki [1] [nM] | Relative Resistance [1] | Ki [2] [nM] | Ki [3] [nM] | Ki [4] [nM] | Ki [5] [nM] | Stern–Volmer quenching constant (Ksv) [6] [nM⁻¹] | Ki [6] [nM] | Ki [7] [nM] | Ki [9] [nM] | Stern–Volmer quenching constant (Ksv) [9] [nM⁻¹] | Ki [10] [nM] | Stern–Volmer quenching constant (Ksv) [10] [nM⁻¹] | also measured
1 | CC(C)CN(C[C@@H](O)[C@H](Cc1ccccc1)NC(=O)O[C@H]1CO[C@H]2OCC[C@H]21)S(=O)(=O)c1ccc(N)cc1 [DRV, darunavir] | 1.58 ± 0.11 | 1.00 | 5.53 ± 0.09 | 7.8 ± 0.71 | 11.5 ± 1.09 | 8.12 | 0.009 | 32.9 | 1.4 ± 0.2 | 26.3 | 0.01 | 44.7 | 0.005 | Stern–Volmer quenching constant (Ksv) ([5]; WT HIV-1 PR): 0.030 nM⁻¹; Ki ([8]; wild type subtype B HIV-1 PR): ~0.005 nM
2 | Cc1cccc(C)c1OCC(=O)N[C@@H](Cc1ccccc1)[C@@H](O)C[C@H](Cc1ccccc1)NC(=O)[C@H](C(C)C)N1CCCNC1=O [LPV, lopinavir] | 2.13 ± 0.23 | 1.00 | 46.5 ± 0.14 | 52.6 ± 0.65 | 76.26 ± 0.09 | 17.2 | 0.004 | 79.5 | 2.1 ± 0.2 | 54.7 | 0.004 | 113 | 0.003 | Relative Resistance [11]: 21.83; Relative Resistance [12]: 24.71; Relative Resistance [13]: 35.80; Stern–Volmer quenching constant (Ksv) [5]: 0.02 nM⁻¹; Ki ([8]; wild-type subtype B HIV-1 PR): ~0.02 nM; Ki [14]: 0.44 to 260 nM
